# Laboratory results taken from patent US12435044B2, “Pyridazinone herbicides and pyridazinone intermediates used to prepare a herbicide” (FMC Corporation, priority 2018, dated 2025).
# Experiments:
# Assay type in all cases: in vivo
# [1] = system: horseweed (Conyza canadensis); experiment: Test C postemergence greenhouse test; details: scale 0 to 100
# Procedure, shortened: (§1)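 Visual 0–100 rating (0 = no effect, 100 = complete control) against controls, 13 to 21 d after treatment in greenhouse. Preemergence: seeds in silt loam soil. Postemergence: plants at 1- to 4-leaf stage (2 to 18 cm) in peat-based medium; compounds in surfactant-containing solvent mixture.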
# [2] = system: corn (ZEAMD; Zea mays, cv. ‘Pioneer 1184’); experiment: Test K pre-/postemergence, mixtures of Cpd. No. 20 with metribuzin or rimsulfuron
# Source text: (§2) This test evaluated the effect of mixtures of Cpd. No. 20 with metribuzin or rimsulfuron on several plant species. Seeds of plant species selected from corn (ZEAMD; Zea mays, cv. ‘Pioneer 1184’), soybean (GLXMA; Glycine max, cv. Pioneer 35T58), giant foxtail (SETFA; Setaria faberi), palmer amaranth (AMAPA; Amaranthus palmeri), common waterhemp (AMATU; Amaranthus rudis), mare's tail (ERICA; Conyza canadensis), and common ragweed (AMBEL; Ambrosia artemisiifolia) were planted in pots containing Tama Silt Loam soil and treated preemergence with a directed soil spray using test chemicals formulated in a non-phytotoxic solvent mixture which included a surfactant.
# (§3) At the same time, plants selected from these crop and weed species were planted in pots containing Redi-Earth® planting medium (Scotts Company, 14111 Scottslawn Road, Marysville, Ohio 43041) comprising spaghnum peat moss, vermiculite, wetting agent and starter nutrients and treated postemergence with test chemicals formulated in the same manner. Plants ranged in height from 2 to 10 cm and were in the one- to two-leaf stage for the postemergence treatment. Treated plants and untreated controls were maintained in a greenhouse for approximately 14-21 d, after which time all treated plants were compared to untreated controls and visually evaluated for injury. Plant response ratings, summarized in Tables K1 to K4, are based on a 0 to 100 scale where 0 is no effect and 100 is complete control. A dash (-) response means no test result. Test results are presented as a mean of 4 reps.
# [3] = system: common ragweed (AMBEL; Ambrosia artemisiifolia); experiment: as above
# Source text: as §2, §3
# [4] = system: common waterhemp (AMATU; Amaranthus rudis); experiment: as above
# Source text: as §2, §3
# [5] = system: palmer amaranth (AMAPA; Amaranthus palmeri); experiment: as above
# Source text: as §2, §3
# [6] = system: soybean (GLXMA; Glycine max, cv. Pioneer 35T58); experiment: as above
# Source text: as §2, §3
# [7] = system: mare's tail (ERICA; Conyza canadensis); experiment: as above
# Source text: as §2, §3
# [8] = system: giant foxtail (SETFA; Setaria faberi); experiment: as above
# Source text: as §2, §3
# [9] = system: pigweed (Amaranthus retroflexus); experiment: Test C pre-/postemergence greenhouse test; details: scale 0 to 100
# Procedure, shortened: as §1
# [10] = system: nightshade (eastern black nightshade, Solanum ptycanthum); experiment: Test C postemergence greenhouse test; details: scale 0 to 100
# Procedure, shortened: as §1
structure (smiles),measurement,setting,value
Cc1ccc2ccc(F)cc2c1-c1c(O)c(Cl)nn(C)c1=O [Cpd. No. 21],"Plant response rating, Horseweed",[1]; 16 g ai/ha,80
same,"Plant response rating, Horseweed",[1]; 31 g ai/ha,85
same,"Plant response rating, Horseweed",[1]; 62 g ai/ha,90
same,"Plant response rating, Horseweed",[1]; 125 g ai/ha,90
"Cc1ccc2ccc(C)c(-c3c(O)c(Cl)nn(C)c3=O)c2c1 [Cpd. No. 20, 6-chloro-4-(2,7-dimethyl-1-naphthalenyl)-5-hydroxy-2-methyl-3(2H)-pyridazinone]","ZEAMD plant response rating, 0 to 100 scale","[2]; postemergence, 8 g a.i./ha",0
same,"ZEAMD plant response rating, 0 to 100 scale","[2]; postemergence, 16 g a.i./ha",0
same,"ZEAMD plant response rating, 0 to 100 scale","[2]; postemergence, 31 g a.i./ha",0
same,"ZEAMD plant response rating, 0 to 100 scale","[2]; postemergence, 62 g a.i./ha",0
same,"ZEAMD plant response rating, 0 to 100 scale","[2]; preemergence, 8 g a.i./ha",0
same,"ZEAMD plant response rating, 0 to 100 scale","[2]; preemergence, 16 g a.i./ha",0
same,"ZEAMD plant response rating, 0 to 100 scale","[2]; preemergence, 31 g a.i./ha",0
same,"ZEAMD plant response rating, 0 to 100 scale","[2]; preemergence, 62 g a.i./ha",0
same,"AMBEL plant response rating, 0 to 100 scale","[3]; postemergence, 8 g a.i./ha",82
same,"AMBEL plant response rating, 0 to 100 scale","[3]; postemergence, 16 g a.i./ha",82
same,"AMBEL plant response rating, 0 to 100 scale","[3]; postemergence, 31 g a.i./ha",92
same,"AMBEL plant response rating, 0 to 100 scale","[3]; postemergence, 62 g a.i./ha",97
same,"AMBEL plant response rating, 0 to 100 scale","[3]; preemergence, 8 g a.i./ha",0
same,"AMBEL plant response rating, 0 to 100 scale","[3]; preemergence, 16 g a.i./ha",26
same,"AMBEL plant response rating, 0 to 100 scale","[3]; preemergence, 31 g a.i./ha",55
same,"AMBEL plant response rating, 0 to 100 scale","[3]; preemergence, 62 g a.i./ha",100
same,"AMATU plant response rating, 0 to 100 scale","[4]; postemergence, 8 g a.i./ha",50
same,"AMATU plant response rating, 0 to 100 scale","[4]; postemergence, 16 g a.i./ha",57
same,"AMATU plant response rating, 0 to 100 scale","[4]; postemergence, 31 g a.i./ha",68
same,"AMATU plant response rating, 0 to 100 scale","[4]; postemergence, 62 g a.i./ha",62
same,"AMATU plant response rating, 0 to 100 scale","[4]; preemergence, 8 g a.i./ha",0
same,"AMATU plant response rating, 0 to 100 scale","[4]; preemergence, 16 g a.i./ha",0
same,"AMATU plant response rating, 0 to 100 scale","[4]; preemergence, 31 g a.i./ha",20
same,"AMATU plant response rating, 0 to 100 scale","[4]; preemergence, 62 g a.i./ha",30
same,"AMAPA plant response rating, 0 to 100 scale","[5]; postemergence, 8 g a.i./ha",28
same,"AMAPA plant response rating, 0 to 100 scale","[5]; postemergence, 16 g a.i./ha",38
same,"AMAPA plant response rating, 0 to 100 scale","[5]; postemergence, 31 g a.i./ha",33
same,"AMAPA plant response rating, 0 to 100 scale","[5]; postemergence, 62 g a.i./ha",60
same,"AMAPA plant response rating, 0 to 100 scale","[5]; preemergence, 8 g a.i./ha",0
same,"AMAPA plant response rating, 0 to 100 scale","[5]; preemergence, 16 g a.i./ha",26
same,"AMAPA plant response rating, 0 to 100 scale","[5]; preemergence, 31 g a.i./ha",50
same,"AMAPA plant response rating, 0 to 100 scale","[5]; preemergence, 62 g a.i./ha",45
same,"GLXMA plant response rating, 0 to 100 scale","[6]; postemergence, 8 g a.i./ha",0
same,"GLXMA plant response rating, 0 to 100 scale","[6]; postemergence, 16 g a.i./ha",0
same,"GLXMA plant response rating, 0 to 100 scale","[6]; postemergence, 31 g a.i./ha",8
same,"GLXMA plant response rating, 0 to 100 scale","[6]; postemergence, 62 g a.i./ha",13
same,"GLXMA plant response rating, 0 to 100 scale","[6]; preemergence, 8 g a.i./ha",0
same,"GLXMA plant response rating, 0 to 100 scale","[6]; preemergence, 16 g a.i./ha",0
same,"GLXMA plant response rating, 0 to 100 scale","[6]; preemergence, 31 g a.i./ha",0
same,"GLXMA plant response rating, 0 to 100 scale","[6]; preemergence, 62 g a.i./ha",0
same,"ERICA plant response rating, 0 to 100 scale","[7]; postemergence, 8 g a.i./ha",77
same,"ERICA plant response rating, 0 to 100 scale","[7]; postemergence, 16 g a.i./ha",85
same,"ERICA plant response rating, 0 to 100 scale","[7]; postemergence, 31 g a.i./ha",92
same,"ERICA plant response rating, 0 to 100 scale","[7]; postemergence, 62 g a.i./ha",93
same,"ERICA plant response rating, 0 to 100 scale","[7]; preemergence, 8 g a.i./ha",89
same,"ERICA plant response rating, 0 to 100 scale","[7]; preemergence, 16 g a.i./ha",100
same,"ERICA plant response rating, 0 to 100 scale","[7]; preemergence, 31 g a.i./ha",100
same,"ERICA plant response rating, 0 to 100 scale","[7]; preemergence, 62 g a.i./ha",100
same,"SETFA plant response rating, 0 to 100 scale","[8]; postemergence, 8 g a.i./ha",37
same,"SETFA plant response rating, 0 to 100 scale","[8]; postemergence, 16 g a.i./ha",62
same,"SETFA plant response rating, 0 to 100 scale","[8]; postemergence, 31 g a.i./ha",77
same,"SETFA plant response rating, 0 to 100 scale","[8]; postemergence, 62 g a.i./ha",92
same,"SETFA plant response rating, 0 to 100 scale","[8]; preemergence, 8 g a.i./ha",6
same,"SETFA plant response rating, 0 to 100 scale","[8]; preemergence, 16 g a.i./ha",50
same,"SETFA plant response rating, 0 to 100 scale","[8]; preemergence, 31 g a.i./ha",84
same,"SETFA plant response rating, 0 to 100 scale","[8]; preemergence, 62 g a.i./ha",100
same,"Plant response rating, Pigweed","[9]; Postemergence, 16 g ai/ha",90
same,"Plant response rating, Pigweed","[9]; Postemergence, 31 g ai/ha",95
same,"Plant response rating, Pigweed","[9]; Postemergence, 62 g ai/ha",95
same,"Plant response rating, Pigweed","[9]; Postemergence, 125 g ai/ha",98
same,"Plant response rating, Pigweed","[9]; Preemergence, 31 g ai/ha",100
same,"Plant response rating, Pigweed","[9]; Preemergence, 61 g ai/ha",100
same,"Plant response rating, Pigweed","[9]; Preemergence, 62 g ai/ha",100
same,"Plant response rating, Pigweed","[9]; Preemergence, 125 g ai/ha",100
Cc1cc(Cl)c2ccccc2c1-c1c(O)c(Cl)nn(C)c1=O [Cpd. No. 65],"Plant response rating, Nightshade",[10]; 16 g ai/ha,90
same,"Plant response rating, Nightshade",[10]; 31 g ai/ha,100
same,"Plant response rating, Nightshade",[10]; 62 g ai/ha,100
same,"Plant response rating, Nightshade",[10]; 125 g ai/ha,100
